Among the data in patent US10940139B2, “Compounds that interact with the Ras superfamily for the treatment of cancers, inflammatory diseases, rasopathies, and fibrotic disease” (Shy Therapeutics LLC, priority 2017, dated 2021) are IC50 and inhibition values, retold here.

Molecules are shown by their SMILES.

In the first experiment the test system is MIA-PACA2 pancreatic cancer cell lines. The experiment can be described thus: Cell proliferation assay (CellTiter 96 AQueous One). Conditions: Homo sapiens, MIA PaCa-2; MIA-PACA2, same assay as the % inhibition (standard conditions). The experiment is classed as cell-based.
With `Oc1nc(-c2ccccn2)nc2scc(Br)c12` [drawing 1589], the IC50 – broadly, the concentration needed to halve the response being measured – lay within 100 to 500 nM.

For `CC(C)(C)c1ccc(-c2csc3c(O)nc(-c4ccccn4)nc23)cc1` [drawing 1723], the IC50 lay within 100 to 500 nM.

Still in this experiment, the particulars now being: Homo sapiens, MIA PaCa-2; at 30 μM, MIA-PACA2.
`N#CC1(c2ccc(C(=O)N3CCCC3CO)cc2)CC1` (stereo not drawn) [drawing 1537]: the inhibition (in general, the relative decrease from the control value, in per cent) at 30 µM lay within 51 to 75%.

`CCc1ccccc1OCC(=O)Nc1nnc(-c2ccccn2)[nH]1` [drawing 1442] gave an inhibition at 30 µM of 76 to 100%.

For `Cc1cc(OC(F)F)ccc1-c1csc2c(O)nc(-c3ccccn3)nc12` [drawing 1754], the inhibition at 30 µM fell in the range of 76 to 100%.

In the case of `Oc1nc(-c2ccccn2)nc2c(-c3cc(F)cc(F)c3)csc12` [drawing 1776], the inhibition at 30 µM was in the range of 76 to 100%.

`CCCOc1ccc2ccccc2c1CN(C)S(=O)(=O)N1CC(C)OC(C)C1` (stereo not drawn) [drawing 1531] gave an inhibition at 30 µM of 76 to 100%.

`Cc1nc(-c2ccccn2)nc(O)c1CCC(=O)Nc1cccc(OCC(=O)N2CCCC2)c1` [drawing 1507]: the inhibition at 30 µM lay within 1 to 25%.

Take `Oc1nc(-c2ccccn2)nc2sccc12` [drawing 1590]: the inhibition at 30 µM was 76 to 100%.

Turning to `O=C(NCCc1cccnc1)c1csc2c(O)nc(-c3ccccn3)nc12` [drawing 1578], the inhibition at 30 µM lay within 76 to 100%.

Compound `O=C(c1csc2c(O)nc(-c3ccccn3)nc12)N1CCC(c2cccnc2)CC1` [drawing 1571] registered an inhibition at 30 µM of 76 to 100%.

In the case of `COC(=O)c1cc(NC(=O)CCc2c(C)nc(-c3ccccn3)nc2O)ccc1Cl` [drawing 1506], the inhibition at 30 µM was 76 to 100%.

For `Cc1sc2c(N)nc(-c3ccccn3)nc2c1-c1ccccc1` [drawing 1713], the inhibition at 30 µM lay in the range of 76 to 100%.

As for `COc1ccc(CC(=O)Nc2nnc(-c3ccccn3)[nH]2)cc1` [drawing 1408], the inhibition at 30 µM was 76 to 100%.

Take `Nc1nc(O)c2scc(Br)c2n1` [drawing 1557]: the inhibition at 30 µM fell in the range of 1 to 25%.

In turn, `COc1cccc(C(=O)Nc2nc(-c3ccccn3)cs2)c1` [drawing 1487] came in with an inhibition at 30 µM of 76 to 100%.

For `COc1ccccc1-c1csc2c(O)nc(-c3ccccn3)nc12` [drawing 1746], the inhibition at 30 µM lay in the range of 76 to 100%.

In turn, `O=C(NCCc1ccc(O)c(O)c1)c1csc2nc(-c3ccccn3)nc(N3CCOCC3)c12` [drawing 1678] gave an inhibition at 30 µM of 76 to 100%.

For the compound `O=C(Nc1nc(-c2ccccn2)cs1)c1ccccn1` [drawing 1480], the inhibition at 30 µM was 76 to 100%.

Compound `COCCCCN(C)C(=O)c1csc2nc(-c3ccccn3)nc(N3CCOCC3)c12` [drawing 1683] showed an inhibition at 30 µM of 76 to 100%.

`O=C(NCCc1cccnc1)c1csc2nc(-c3ccccn3)nc(N3CCOCC3)c12` [drawing 1638]: the inhibition at 30 µM fell in the range of 76 to 100%.

With `CN(Cc1cnn(C)c1)c1nc(-c2ccccn2)nc2scc(-c3ccccc3)c12` [drawing 1604], the inhibition at 30 µM is 76 to 100%.

As for `Cc1cnc(-c2ccccn2)nc1NC(=O)C1CCCc2cc(C#N)ccc21` (stereo not drawn) [drawing 1703], the inhibition at 30 µM is 76 to 100%.

In turn, `COc1cc(-c2csc3c(O)nc(-c4ccccn4)nc23)cnc1C(F)(F)F` [drawing 1760] gave an inhibition at 30 µM of 76 to 100%.

Regarding `O=c1nc(-c2ccccn2)[nH]c2sc(-c3ccccc3)cc12` [drawing 1495], the inhibition at 30 µM lay in the range of 76 to 100%.

Compound `COC(=O)c1cc2nc(-c3ccccn3)nc(O)c2s1` [drawing 1783] returned an inhibition at 30 µM of 76 to 100%.

Take `O=C(Cc1ccccc1)NCCC(=O)Nc1nnc(-c2ccccn2)[nH]1` [drawing 1413]: the inhibition at 30 µM was in the range of 1 to 25%.

`COc1ccc(CCNC(=O)c2csc3nc(-c4ccccn4)nc(N4CCOCC4)c23)cn1` [drawing 1639] displayed an inhibition at 30 µM of 51 to 75%.

`COc1ccc2c(c1)CCC2C(=O)Nc1ccnc(-c2ccccn2)n1` (stereo not drawn) [drawing 1688] registered an inhibition at 30 µM of 76 to 100%.

Take `O=C(c1ccc(=O)[nH]n1)N1CCCc2c(O)nc(-c3ccccn3)nc21` [drawing 1548]: the inhibition at 30 µM is 76 to 100%.

`CN1CCN(c2nc(-c3ccccn3)nc3scc(C(=O)NCCc4cnc(O)nc4)c23)CC1` [drawing 1775] registered an inhibition at 30 µM of 25 to 50%.

`NC(=O)C1CCCN(c2nc(-c3ccccn3)nc3scc(-c4ccccc4)c23)C1` (stereo not drawn) [drawing 1624] returned an inhibition at 30 µM of 76 to 100%.

`O=C(Nc1nnc(-c2ccccn2)[nH]1)c1ccc(OCC2CC2)cc1` [drawing 1434] showed an inhibition at 30 µM of 76 to 100%.

Take `O=C(c1csc2c(O)nc(-c3ccccn3)nc12)N1CCN(Cc2cccc(O)c2)CC1` [drawing 1634]: the inhibition at 30 µM was 76 to 100%.

`O=C(CC(c1ccccc1)c1ccccc1)N1CCCc2c(O)nc(-c3ccccn3)nc21` [drawing 1555] displayed an inhibition at 30 µM of 76 to 100%.

Regarding `N#Cc1ccc(COCC(=O)Nc2nc(-c3ccccn3)nc3sccc23)cc1` [drawing 1692], the inhibition at 30 µM was 76 to 100%.

Compound `OCCn1ccc2c1CCCC2Nc1nc(-c2ccccn2)nc2scc(-c3ccccc3)c12` (stereo not drawn) returned an inhibition at 30 µM of 76 to 100%.

`COC(=O)c1cncc(C(=O)Nc2nnc(-c3ccccn3)[nH]2)c1` [drawing 1441]: the inhibition at 30 µM lay within 25 to 50%.

In turn, `COCCCC(=O)N1CCCc2c(O)nc(-c3ccccn3)nc21` [drawing 1550] registered an inhibition at 30 µM of 76 to 100%.

On to `Cc1cccc(OCC(=O)Nc2nnc(-c3ccccn3)[nH]2)c1` [drawing 1464], for which the inhibition at 30 µM fell in the range of 51 to 75%.

The compound `O=C(c1csc2c(O)nc(-c3ccccn3)nc12)N1CCN(c2ccc(F)cc2F)CC1` [drawing 1653] gave an inhibition at 30 µM of 76 to 100%.

The compound `CCN(CC)CCC(C)Nc1nc(-c2ccccn2)nc2sccc12` (stereo not drawn) [drawing 1592] returned an inhibition at 30 µM of 76 to 100%.

Take `O=C(CN1CCN(c2nc(-c3ccccn3)nc3scc(-c4ccccc4)c23)CC1)N1CCCCC1` [drawing 1611]: the inhibition at 30 µM was in the range of 76 to 100%.

In turn, `CCOC(=O)NC1CCN(C(=O)c2csc3c(O)nc(-c4ccccn4)nc23)CC1` [drawing 1574] displayed an inhibition at 30 µM of 51 to 75%.

In the case of `Oc1nc(-c2ccccn2)nc2c1CCCN2` [drawing 1542], the inhibition at 30 µM was in the range of 1 to 25%.

Consider `Oc1ccc(C2(c3cccc(Cl)c3)CCCC2)cc1` [drawing 1525], for which the inhibition at 30 µM was 76 to 100%.

Compound `O=C(COCc1ccncc1)Nc1nc(-c2ccccn2)nc2sccc12` [drawing 1704] gave an inhibition at 30 µM of 76 to 100%.

Take `COc1ccc(CCNC(=O)c2csc3nc(-c4ccccn4)nc(N4CCS(=O)(=O)CC4)c23)cn1` [drawing 1729]: the inhibition at 30 µM lay within 51 to 75%.

`O=C(c1csc2c(O)nc(-c3ccccn3)nc12)N1CCNC(Cc2ccc(F)cc2)C1` (stereo not drawn) [drawing 1707]: the inhibition at 30 µM was in the range of 51 to 75%.

As for `CC(C)C(=O)Nc1nc(CC(=O)Nc2nnc(-c3ccccn3)[nH]2)cs1` [drawing 1453], the inhibition at 30 µM was 76 to 100%.

In turn, `O=C(Nc1nc(-c2ccccn2)cs1)c1ccc2[nH]cnc2c1` [drawing 1478] registered an inhibition at 30 µM of 76 to 100%.

`Oc1nc(-c2ccccn2)nc2scc(Br)c12` [drawing 1589]: the inhibition at 30 µM fell in the range of 76 to 100%.

As to `COc1cc(CCNC(=O)c2csc3nc(-c4ccccn4)nc(N4CCOCC4)c23)ccn1` [drawing 1641], the inhibition at 30 µM was 51 to 75%.

For the compound `Oc1nc(-c2ccccn2)nc2c(-c3ccnn3-c3ccccn3)csc12` [drawing 1780], the inhibition at 30 µM fell in the range of 76 to 100%.

The compound `O=C(Nc1nc(-c2ccccn2)cs1)C1CC(=O)N(c2ccc3c(c2)OCCO3)C1` (stereo not drawn) [drawing 1482] had an inhibition at 30 µM of 76 to 100%.

Compound `Oc1nc(-c2ccccn2)nc2c(-c3ccc4c(c3)CCCO4)csc12` [drawing 1778] had an inhibition at 30 µM of 76 to 100%.

In turn, `Cc1cnc(-c2ccccn2)nc1NC(=O)C(C)c1ccc(C#N)cc1` (stereo not drawn) [drawing 1690] registered an inhibition at 30 µM of 76 to 100%.

As to `COc1ccccc1C1CN(C(=O)c2csc3c(O)nc(-c4ccccn4)nc23)CCN1` (stereo not drawn) [drawing 1665], the inhibition at 30 µM was in the range of 76 to 100%.

As to `O=C(Cn1c(=O)cnc2ccccc21)Nc1nc(-c2ccccn2)cs1` [drawing 1476], the inhibition at 30 µM is 76 to 100%.

The compound `O=C(O)c1cc2nc(-c3ccccn3)nc(O)c2s1` [drawing 1726] registered an inhibition at 30 µM of 51 to 75%.

In the case of `COc1ccc(-c2csc3c(O)nc(-c4ccccn4)nc23)c(C)c1` [drawing 1757], the inhibition at 30 µM is 76 to 100%.

With `CC(Nc1nc(-c2ccccn2)nc2scc(-c3ccccc3)c12)c1nncn1C` (stereo not drawn) [drawing 1601], the inhibition at 30 µM fell in the range of 76 to 100%.

In turn, `O=C(NCCc1ccncc1)c1csc2nc(-c3ccccn3)nc(N3CCOCC3)c12` [drawing 1672] displayed an inhibition at 30 µM of 76 to 100%.

For the compound `O=C(c1cc2nc(-c3ccccn3)nc(O)c2s1)N1CCN(c2ccccc2)CC1` [drawing 1717], the inhibition at 30 µM was 76 to 100%.

Turning to `OCCNc1nc(-c2ccccn2)nc2scc(-c3ccccc3)c12` [drawing 1509], the inhibition at 30 µM lay within 76 to 100%.

The compound `Oc1nc(-c2ccccn2)nc2c(-c3ccc4c(c3)OCO4)csc12` [drawing 1755] gave an inhibition at 30 µM of 76 to 100%.

In turn, `O=C(COCc1ccccc1Cl)Nc1nnc(-c2ccccn2)[nH]1` [drawing 1431] yielded an inhibition at 30 µM of 76 to 100%.

Consider `COc1cn(-c2ccccc2)nc1C(=O)Nc1nnc(-c2ccccn2)[nH]1` [drawing 1466], for which the inhibition at 30 µM lay in the range of 51 to 75%.

With `Cc1sc2c(O)nc(-c3ccccn3)nc2c1-c1cccnc1` [drawing 1790], the inhibition at 30 µM lay within 76 to 100%.

`O=C(Nc1nc(-c2ccccn2)cs1)c1ccc2nccnc2c1` [drawing 1477] yielded an inhibition at 30 µM of 76 to 100%.

In turn, `Oc1nc(-c2ccccn2)nc2c1ncn2-c1ccccn1` [drawing 1584] displayed an inhibition at 30 µM of 76 to 100%.

With `O=C(Nc1nnc(-c2ccccn2)[nH]1)C1CCN(C(=O)c2cccs2)CC1` [drawing 1465], the inhibition at 30 µM lay within 76 to 100%.

`O=C(Nc1nnc(-c2ccccn2)[nH]1)c1csc(-c2ccco2)n1` [drawing 1457] showed an inhibition at 30 µM of 76 to 100%.

`O=C(Cn1cnc2ccccc2c1=O)Nc1nc(-c2ccccn2)cs1` [drawing 1481]: the inhibition at 30 µM was in the range of 76 to 100%.

`O=C(CNc1nc(-c2ccccn2)nc2scc(-c3ccccc3)c12)NC1CC1` [drawing 1612] displayed an inhibition at 30 µM of 76 to 100%.

Turning to `CC(C)(C)c1ccc(-c2csc3c(O)nc(-c4ccccn4)nc23)cc1` [drawing 1723], the inhibition at 30 µM is 76 to 100%.

Compound `c1ccc(-c2csc3nc(-c4ccccn4)nc(N4CCN(CC5CCCO5)CC4)c23)cc1` (stereo not drawn) [drawing 1603] returned an inhibition at 30 µM of 76 to 100%.

Regarding `CC(C)NC(=O)Nc1cccc(C(=O)Nc2nnc(-c3ccccn3)[nH]2)c1` [drawing 1384], the inhibition at 30 µM was 25 to 50%.
